Source: US8642620B2, “Heteroaryl-substituted amides comprising an unsaturated or cyclic linker group, and their use as pharmaceuticals” (Sanofi, priority 2005, dated 2014)
Structures can show the parent of a compound that is named as a salt.

What was measured:
eNOS promoter = test: Activation of eNOS transcription (eNOS promoter-luciferase reporter gene assay); assay type: cell-based; conditions: human endothelial cell line stably transfected with eNOS promoter-luciferase construct; 18 h incubation; EC50 determined graphically; read-out: EC50 values of transcription induction ratios (TIR)
Protocol: Activation of eNOS transcription was measured as described in detail by Li et al., “Activation of protein kinase C alpha and/or epsilon enhances transcription of the human endothelial nitric oxide synthase gene”, Mol. Pharmacol. 53 (1998) 630. Briefly, a 3.5 kB long fragment 5′ of the starting codon of the eNOS gene was cloned, sequenced and cloned in firefly luciferase expression plasmids to monitor activation of the eNOS promoter by reporter gene activity. A human endothelial cell line stable transfected and expressing this promoter-reporter construct was used for compound testing. Cells were incubated for 18 h with the compounds.
All compounds were dissolved in sterile dimethyl sulfoxide (DMSO). A final concentration of 0.5% DMSO in complete medium was allowed. Induction of reporter gene expression in these cells was measured using a standard luciferase assay system (Promega, Cat. No. E150) according to the manufacturer's instructions. Luciferase induction in cells incubated with compounds were compared to those incubated with solvent alone. The ratio of both activities (transcription induction ratio, TIR) was plotted as a function of compound concentration. Typically, TIR values started at low concentrations at a ratio of 1, indicating no compound effect, and extended up to a maximum TIR value TIR(max) which indicates the increase of the eNOS transcription. EC50 values of transcription induction ratios as a function of compound concentration were determined graphically.

| EC50 (eNOS promoter) [nM] | melting point [°C] | SMILES |
| --- | --- | --- |
| < 500 | 172 | O=C1CNC(=O)N1C1CC1c1ccc(-c2ccc(F)c(Cl)c2)nc1 (racemic) [Example 21, 3-((E)-2-(6-(3-Chloro-4-fluorophenyl)pyridin-3-yl)cyclopropyl)imidazolidine-2,4-dione] |
| 500 to 5000 |  | O=C1CCCC(=O)N1CC#Cc1ccc(-c2ccccc2F)nc1 [Example 2, 1-(3-(6-(2-Fluorophenyl)pyridin-3-yl)prop-2-ynyl)piperidine-2,6-dione trifluoroacetic acid salt] |
| 500 to 5000 |  | O=c1ccccn1C/C=C/c1nc(-c2ccc(F)cc2)cs1 [Example 3, 1-(3-(4-(4-Fluorophenyl)thiazol-2-yl)allyl)-1H-pyridin-2-one] |
| 500 to 5000 |  | CC1(C)NC(=O)N(C/C=C/c2ccc(-c3ccc(F)cc3)nc2)C1=O [Example 11, 3-(3-(6-(4-Fluorophenyl)pyridin-3-yl)allyl)-5,5-dimethylimidazolidine-2,4-dione trifluoroacetic acid salt] |
